Drawing on patent US8895585B2, “Nicotinamide derivative or salt thereof” (FUJIFILM Corporation, priority 2010, dated 2014), this text covers IC50 for 27 compounds.

The subject of assay [1] is THP-1 cells. The assay can be described thus: TNFα generation assay. It is filed as cell-based, human. The note with it: Homo sapiens, THP-1, THP-1 cells; Table 22; read-out: IC50 in TNFα generation assay. Put shortly: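 THP-1 cells differentiated to macrophage-like cells with 10 ng/ml IFN-γ for 2 days, preincubated with compound 30 min at room temperature, then cultured 7 h on plates coated with human IgG (10 μg/ml). Secreted TNFα measured by ELISA or AlphaLISA.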

Assay [2] deals with T1, glutathione S-transferase (GST)-fused full-length human Syk protein (Homo sapiens, UniProt P43405).
T1 construct: (GST)-fused full-length human Syk protein; GST (glutathione S-transferase); purchased Carna Biosciences
The assay can be described thus: Syk enzyme assay. Type of assay: biochemical. The note with it: Syk enzyme assay, Test Example 1; read-out: IC50 of Syk-inhibitory activity. The method in brief: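 Baculovirus-expressed enzyme (1.2 ng) was preincubated with compound in HEPES pH 7.0/MgCl2/DTT buffer, 2 min shaking then 13 min at room temperature. Biotin-EDPDYEWPSA-NH2 (0.4 μM final) and ATP (27 μM final) were added for 40 min at room temperature. EDTA stop, streptavidin-XL/PT66-K TR-FRET at 615/665 nm gave IC50.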

For `C[C@H](N)[C@@H](CC1CC1)Nc1nc(Nc2cccc3c2cnn3C)c(C(N)=O)cc1F` [Example 006-356, 6-(((2R,3S)-3-amino-1-cyclopropylbutan-2-yl)amino)-5-fluoro-2-((1-methyl-1H-indazol-4-yl)amino)nicotinamide], the values for the IC50 in assay [1] and in assay [2] were less than 65 nM and less than 10 nM, respectively.

Turning to `C[C@H](N)[C@@H](CC1CC1)Nc1nc(Nc2cncc(F)c2)c(C(N)=O)cc1F` [Example 006-357, 6-(((2R,3S)-3-amino-1-cyclopropylbutan-2-yl)amino)-5-fluoro-2-((5-fluoropyridin-3-yl)amino)nicotinamide], the IC50 in assay [1] was 65 to 130 nM; in assay [2], 10 to 50 nM.

On to `CC[C@@H](Nc1nc(Nc2ccc3cnn(C)c3c2)c(C(N)=O)cc1F)[C@H](C)N` [Example 006-358, 6-(((2S,3R)-2-aminopentan-3-yl)amino)-5-fluoro-2-((1-methyl-1H-indazol-6-yl)amino)nicotinamide], for which the IC50 in assay [1] is less than 65 nM; in assay [2], less than 10 nM.

For the compound `CCC[C@@H](Nc1nc(Nc2ccc3cnn(C)c3c2)c(C(N)=O)cc1F)[C@H](C)N` [Example 006-359, 6-(((2S,3R)-2-aminohexan-3-yl)amino)-5-fluoro-2-((1-methyl-1H-indazol-6-yl)amino)nicotinamide], the figures for the IC50 in assay [1] and in assay [2] were less than 65 nM and less than 10 nM, respectively.

Take `CCCC[C@H](CN)Nc1nc(Nc2ccc3cnn(C)c3c2)c(C(N)=O)cc1F` [Example 006-360, (R)-6-((1-aminohexan-2-yl)amino)-5-fluoro-2-((1-methyl-1H-indazol-6-yl)amino)nicotinamide]: the values for the IC50 in assay [1] and in assay [2] were 65 to 130 nM and less than 10 nM, respectively.

In the case of `C[C@H](N)[C@@H](CC1CC1)Nc1nc(Nc2ccc3cnn(C)c3c2)c(C(N)=O)cc1F` [Example 006-361, 6-(((2R,3S)-3-amino-1-cyclopropylbutan-2-yl)amino)-5-fluoro-2-((1-methyl-1H-indazol-6-yl)amino)nicotinamide], the IC50 in assay [1] is 65 to 130 nM; in assay [2] it was less than 10 nM.

With `CC[C@H](N)[C@@H](C)Nc1nc(Nc2ccc3c(cnn3CC)c2)c(C(N)=O)cc1F` [Example 006-362, 6-(((2R,3S)-3-aminopentan-2-yl)amino)-2-((1-ethyl-1H-indazol-5-yl)amino)-5-fluoronicotinamide], the results for the IC50 in assay [1] and in assay [2] were 130 to 200 nM and less than 10 nM, respectively.

As for `CC[C@H](N)[C@@H](C)Nc1nc(Nc2ccc3c(cnn3CCOC)c2)c(C(N)=O)cc1F` [Example 006-363, 6-(((2R,3S)-3-aminopentan-2-yl)amino)-5-fluoro-2-((1-(2-methoxyethyl)-1H-indazol-5-yl)amino)nicotinamide], the IC50 was 65 to 130 nM in assay [1] and less than 10 nM in assay [2].

As for `CC[C@H](N)[C@@H](CC)Nc1nc(Nc2ccc3c(cnn3C)c2)c(C(N)=O)cc1F` [Example 006-364, 6-(((3R,4S)-4-aminohexan-3-yl)amino)-5-fluoro-2-((1-methyl-1H-indazol-5-yl)amino)nicotinamide], the IC50 in assay [1] was 65 to 130 nM; in assay [2] it was less than 10 nM.

On to `CC[C@H](N)[C@@H](CC)Nc1nc(Nc2ccc3c(cnn3CC)c2)c(C(N)=O)cc1F` [Example 006-365, 6-(((3R,4S)-4-aminohexan-3-yl)amino)-2-((1-ethyl-1H-indazol-5-yl)amino)-5-fluoronicotinamide], for which the IC50 was 65 to 130 nM in assay [1] and less than 10 nM in assay [2].

For the compound `C[C@H](N)[C@H](Nc1nc(Nc2ccc3c(cnn3C)c2)c(C(N)=O)cc1F)C1CC1` [Example 006-369, 6-(((1R,2S)-2-amino-1-cyclopropylpropyl)amino)-5-fluoro-2-((1-methyl-1H-indazol-5-yl)amino)nicotinamide], the IC50 is less than 65 nM in assay [1] and less than 10 nM in assay [2].

Consider `C[C@H](N)[C@H](Nc1nc(Nc2ccc3cnn(C)c3c2)c(C(N)=O)cc1F)C1CC1` [Example 006-370, 6-(((1R,2S)-2-amino-1-cyclopropylpropyl)amino)-5-fluoro-2-((1-methyl-1H-indazol-6-yl)amino)nicotinamide], for which the IC50 was less than 65 nM in assay [1] and less than 10 nM in assay [2].

Turning to `C[C@H](N)[C@H](Nc1nc(Nc2cncc(C3CC3)c2)c(C(N)=O)cc1F)C1CC1` [Example 006-371, 6-(((1R,2S)-2-amino-1-cyclopropylpropyl)amino)-2-((5-cyclopropylpyridin-3-yl)amino)-5-fluoronicotinamide], the figures for the IC50 in assay [1] and in assay [2] were 65 to 130 nM and less than 10 nM, respectively.

`C[C@H](N)[C@H](Nc1nc(Nc2cncc(F)c2)c(C(N)=O)cc1F)C1CC1` [Example 006-372, 6-(((1R,2S)-2-amino-1-cyclopropylpropyl)amino)-5-fluoro-2-((5-fluoropyridin-3-yl)amino)nicotinamide]: the IC50 lay within 65 to 130 nM in assay [1] and 10 to 50 nM in assay [2].

Take `C[C@H](N)[C@H](Nc1nc(Nc2cncc(-n3cccn3)c2)c(C(N)=O)cc1F)C1CC1` [Example 006-373, 2-((5-(1H-pyrazol-1-yl)pyridin-3-yl)amino)-6-(((1R,2S)-2-amino-1-cyclopropylpropyl)amino)-5-fluoronicotinamide]: the figures for the IC50 in assay [1] and in assay [2] were less than 65 nM and less than 10 nM, respectively.

In the case of `Cc1ncc(Nc2nc(N[C@H](CC3CC3)[C@H](C)N)c(F)cc2C(N)=O)cc1-n1nccn1` [Example 006-374, 6-(((2R,3S)-3-amino-1-cyclopropylbutan-2-yl)amino)-5-fluoro-2-((6-methyl-5-(2H-1,2,3-triazol-2-yl)pyridin-3-yl)amino)nicotinamide], the IC50 lay within 130 to 200 nM in assay [1] and 10 to 50 nM in assay [2].

With `CC[C@H](N)[C@@H](CC)Nc1nc(Nc2cncc(C3CC3)c2)c(C(N)=O)cc1F` [Example 006-378, 6-(((3R,4S)-4-aminohexan-3-yl)amino)-2-((5-cyclopropylpyridin-3-yl)amino)-5-fluoronicotinamide], the IC50 in assay [1] was 65 to 130 nM; in assay [2] it was less than 10 nM.

Turning to `CC[C@H](N)[C@@H](CC)Nc1nc(Nc2cc(OC)nc(OC)c2)c(C(N)=O)cc1F` [Example 006-379, 6-(((3R,4S)-4-aminohexan-3-yl)amino)-2-((2,6-dimethoxypyridin-4-yl)amino)-5-fluoronicotinamide], the IC50 was 130 to 200 nM in assay [1] and less than 10 nM in assay [2].

Turning to `CC[C@H](N)[C@@H](CC)Nc1nc(Nc2cnc(C)c(-n3nccn3)c2)c(C(N)=O)cc1F` [Example 006-380, 6-(((3R,4S)-4-aminohexan-3-yl)amino)-5-fluoro-2-((6-methyl-5-(2H-1,2,3-triazol-2-yl)pyridin-3-yl)amino)nicotinamide], the IC50 was 65 to 130 nM in assay [1] and 10 to 50 nM in assay [2].

On to `CC[C@H](N)[C@@H](CC)Nc1nc(Nc2ccnc(OC)c2)c(C(N)=O)cc1F` [Example 006-381, 6-(((3R,4S)-4-aminohexan-3-yl)amino)-5-fluoro-2-((2-methoxypyridin-4-yl)amino)nicotinamide], for which the IC50 in assay [1] was 65 to 130 nM; in assay [2] it was 10 to 50 nM.

As for `COCCn1ncc2cc(Nc3nc(N[C@H](CC(C)C)[C@H](C)N)c(F)cc3C(N)=O)ccc21` [Example 006-385, 6-(((2S,3R)-2-amino-5-methylhexan-3-yl)amino)-5-fluoro-2-((1-(2-methoxyethyl)-1H-indazol-5-yl)amino)nicotinamide], the figures for the IC50 in assay [1] and in assay [2] were 65 to 130 nM and less than 10 nM, respectively.

With `Cc1ncc(Nc2nc(N[C@H](CC(C)C)[C@H](C)N)c(F)cc2C(N)=O)cc1-n1nccn1` [Example 006-386, 6-(((2S,3R)-2-amino-5-methylhexan-3-yl)amino)-5-fluoro-2-((6-methyl-5-(2H-1,2,3-triazol-2-yl)pyridin-3-yl)amino)nicotinamide], the IC50 is less than 65 nM in assay [1] and less than 10 nM in assay [2].

As for `CCCC[C@@H](Nc1nc(Nc2ccc3c(cnn3C)c2)c(C(N)=O)cc1F)[C@H](C)N` [Example 006-387, 6-(((2S,3R)-2-aminoheptane-3-yl)amino)-5-fluoro-2-((1-methyl-1H-indazol-5-yl)amino)nicotinamide], the IC50 in assay [1] was 65 to 130 nM; in assay [2], less than 10 nM.

Consider `CCCC[C@@H](Nc1nc(Nc2ccc3c(cnn3CC)c2)c(C(N)=O)cc1F)[C@H](C)N` [Example 006-388, 6-(((2S,3R)-2-aminoheptane-3-yl)amino)-2-((1-ethyl-1H-indazol-5-yl)amino)-5-fluoronicotinamide], for which the results for the IC50 in assay [1] and in assay [2] were 65 to 130 nM and less than 10 nM, respectively.

Turning to `CCCC[C@@H](Nc1nc(Nc2ccc3c(cnn3CCOC)c2)c(C(N)=O)cc1F)[C@H](C)N` [Example 006-389, 6-(((2S,3R)-2-aminoheptane-3-yl)amino)-5-fluoro-2-((1-(2-methoxyethyl)-1H-indazol-5-yl)amino)nicotinamide], the results for the IC50 in assay [1] and in assay [2] were 65 to 130 nM and less than 10 nM, respectively.

As for `CCCC[C@@H](Nc1nc(Nc2cnc(C)c(-n3nccn3)c2)c(C(N)=O)cc1F)[C@H](C)N` [Example 006-390, 6-(((2S,3R)-2-aminoheptan-3-yl)amino)-5-fluoro-2-((6-methyl-5-(2H-1,2,3-triazol-2-yl)pyridin-3-yl)amino)nicotinamide], the IC50 in assay [1] is 65 to 130 nM; in assay [2], less than 10 nM.

As to `C[C@H](N)[C@@H](CC1CC1)Nc1nc(Nc2cncc(-n3cccn3)c2)c(C(N)=O)cc1F` [Example 006-392, 2-((5-(1H-pyrazol-1-yl)pyridin-3-yl)amino)-6-(((2R,3S)-3-amino-1-cyclopropylbutan-2-yl)amino)-5-fluoronicotinamide], the figures for the IC50 in assay [1] and in assay [2] were 65 to 130 nM and less than 10 nM, respectively.
